Reference: paper PMC12195677, “In Vitro Effect of Ferruginol, Tanshinone, and Carnosol Analogues on the Proliferation of Three Breast Cancer Cell Lines” (Molecules, 2025)
Like-named read-outs stand apart in the source and are kept apart here.

Columns and labels:
[1] = tested on: human BJ fibroblasts; conditions: cited from earlier work
[2] = tested on: MDA-MB231; conditions: cited from earlier work; for TI (therapeutic index) MDA-MB231: EC50 BJ fibroblasts / EC50 MDA-MB231
[3] = tested on: MCF07; conditions: cited from earlier work; for TI (therapeutic index) MCF07: EC50 BJ fibroblasts / EC50 MCF07
[4] = tested on: SUM149; conditions: cited from earlier work; for TI (therapeutic index) SUM149: EC50 BJ fibroblasts / EC50 SUM149; for Effectiveness against SUM149 cell line (in words): conclusions, Table 1 values of these compounds ref 13
[5] = tested on: several breast cancer cell lines; parameters: method as in PMID 36831660; conditions: cited from earlier work; for therapeutic index range: range over the named compounds and cell lines (Table 1)
[6] = tested on: SUM149 cells; assay: Colony formation (clonogenic) assay, SUM149; format: cell-based, Human; conditions: 10 μM
Method: Further evaluation of various promising compounds using breast cancer cells included analysis of colony-forming inhibition capabilities and investigations into their specific mechanistic pathways of action. Thus, the anchorage-dependent colony formation assay, also known as the clonogenic assay, was conducted. This method in cancer research evaluates the ability of single cells to grow into colonies when attached to a surface and can measure a cell’s ability to undergo “unlimited” division and form a colony (usually defined as ≥50 cells).
The clonogenic assay offers comprehensive insights into the compound’s overall efficacy and is regarded as the definitive method for assessing post-treatment reproductive cell death (both cytotoxic and cytostatic effects). The extended duration of the experiment simultaneously provides valuable data on the compounds’ stability over time, which are not detected in short-term viability assays. […] In the MDA-MB231 cellular model (Figure 3), the evaluated compounds successfully eliminated the cells’ capacity to establish colonies (for images, see Figures S3 and S4).
MDA-MB-231 (0.8 × 10^6 cells/well) and SUM-149 cells (1.5 × 10^6 cells/well) were plated on a 6-well plate. Two days later, cell media was changed to 5% FBS, and cells were incubated at 37 °C in a 5% CO2 atmosphere for 1 h before the vehicle (0.1% DMSO) or compound (5–10μM) was added. After 72 h of treatment, cells were trypsinized and reseeded at 800 cells/mL (MDA-MB231) and 1200 cells/mL (SUM149) per well in 6-well plates. After 10 days of culture, the media was removed from the wells and washed once with cold PBS. The colonies were stained with 5 mL of 1% Crystal Violet for 30 min. The dishes were fixed by methanol, rinsed with water three times, and air-dried, and the colonies were counted using ImageJ version 1.5.4 (NIH, Bethesda, MD, USA).

[7] = tested on: MDA-MB231 breast cancer cells; assay: Cell morphology by brightfield microscopy; format: cell-based, Human; conditions: 24 h treatment, brightfield 10×; 1 and 6 at 5 μM, 10 at 10 μM
Description: Brightfield microscopy images of MDA-MB231 breast cancer cells are indicated in Figure 6 to highlight the morphological changes that occur upon treatment with compounds 1, 6, and 10 as representative compounds. […] The precise mechanism of cell death for other compounds remained unclear.
Representative images were collected using 10× objective with a Leica DMi1 Microscope (Leica microsystems, Wetzlar, Germany). MDA-MB231 cells were imaged with a vehicle as the negative control, staurosporine as the positive control (2 μM), or compounds with results shown in representative images for 24 h.

[8] = tested on: SUM149; assay: CellTiter-Glo cell viability/proliferation assay, SUM149; format: cell-based, Human; conditions: for TI (therapeutic index) SUM149: EC50 BJ fibroblasts / EC50 SUM149; for IC50: Homo sapiens, SUM149, 72 h incubation, CellTiter-Glo, mean ± SD, read-out: Cytotoxicity IC50, SUM149
Method: (§1) The compounds were systematically assessed through multiple biological testing platforms to establish their relative effectiveness and explore potential correlations between chemical structure and biological function. Firstly, their ability to inhibit the proliferation of three specific breast cancer linages (SUM149, MDA-MB231, MCF07) was evaluated in vitro by using the established CellTiter-Glo® [18, 19] cellular proliferation assay.
(§2) Human cell lines were incubated at 37 °C in a 5% CO2 atmosphere and maintained under sterile conditions. Cells were tested for Mycoplasma (Lonza, Alpharetta, GA, USA) using the manufacturer’s conditions prior to experiments. Cell lines were purchased from American Type Culture Collection (ATCC, Manassas, VA, USA), and SUM149 was obtained from Asterand (Detroit, MI, USA) and cultured without antibiotics unless stated. Cells were cultured in Eagle’s Minimum Essential Medium (EMEM), DMEM, or F12 from ATCC supplemented with 10% fetal bovine serum (FBS, Hyclone, Logan, UT, USA) and 1% GlutaMAX. Human BJ fibroblast cells (ATCC, CRL-2522) were supplemented with 10% fetal bovine serum (FBS, Hyclone, Logan, UT, USA) and 1% GlutaMAX. BJ cells were cultured in EMEM media, and breast cancer cells (MDA-MB-231, MCF07) were cultured in DMEM. SUM149 was cultured in Ham’s F12 supplemented with 1% GlutaMAX,1% Pen/Step, 2 μM cortisol, and 1 ug/mL insulin. Cells were grown to 80% confluence densities as recommended by ATCC.
(§3) Cytotoxicity evaluation was performed using the CellTiter-Glo Luminescent Cell Viability Assay kit (G7570, Promega, Madison, WI, USA), according to the manufacturer’s instructions. Briefly, the cell concentrations used were experimentally determined to ensure logarithmic growth during the 72 h duration of the experiment and avoid adverse effects on cell growth by DMSO exposure. To proceed, […] cells/well were seeded in 96-well white flat-bottomed plates (#3610 Corning, Corning, NY, USA) in […]. The plates were incubated at 37 °C in 5% CO2 for 24 h before drugging. Test compounds (10 mM in DMSO) in eight 2-fold serial dilutions were dispensed to assay plates. The final concentration of DMSO was 0.3% (v/v) in each well. The positive controls included staurosporine (10 μM) and/or gambogic acid (10 μM). The plates were incubated for 72 h at 37 °C in 5% CO2, then quenched with CellTiter-Glo® (Promega, Madison, WI, USA, 50 uL/well), centrifuged at 1000 rpm for 1 min, and incubated at RT for 20 min. Luminescence was recorded with a plate reader (CLARIOstar Plus, BMG LabTech, Ortenberg, Germany). The mean luminescence of each experimental treatment group was normalized as a percentage of the mean intensity of untreated controls. EC50 values were calculated from dose-response curve-fitting via non-linear regression using GraphPad Prism 9.0 (GraphPad Software, San Diego, CA, USA). A therapeutic index (TI) between normal and tumor cell lines can be determined (EC50 non-neoplastic cell line BJ)/(EC50 cancer cell line).

[9] = CellTiter-Glo cell viability assay, non-neoplastic BJ fibroblasts; format: cell-based; conditions: BJ fibroblast cells (non-neoplastic, ATCC CRL-2522), non-neoplastic human BJ fibroblasts, mean ± SD, read-out: Cytotoxicity IC50, BJ
Method: as §2, §3

[10] = tested on: MCF07; assay: CellTiter-Glo cell viability/proliferation assay, MCF07; format: cell-based, Human; conditions: for TI (therapeutic index) MCF07: EC50 BJ fibroblasts / EC50 MCF07; for IC50: Homo sapiens, 72 h incubation, CellTiter-Glo, mean ± SD, read-out: Cytotoxicity IC50, MCF07
Method: as §1, §2, §3

[11] = tested on: MDA-MB231; assay: CellTiter-Glo cell viability/proliferation assay, MDA-MB231; format: cell-based, Human; conditions: for TI (therapeutic index) MDA-MB231: EC50 BJ fibroblasts / EC50 MDA-MB231; for IC50: Homo sapiens, MDA-MB-231, 72 h incubation, CellTiter-Glo, mean ± SD, read-out: Cytotoxicity IC50, MDA-MB231
Method: as §1, §2, §3

[12] = read-out: Cytotoxicity IC50, BJ, non-neoplastic human BJ fibroblasts, 72 h, CellTiter-Glo, mean ± SD
[13] = read-out: Cytotoxicity IC50, MDA-MB231, 72 h incubation, CellTiter-Glo, mean ± SD
[14] = read-out: Cytotoxicity IC50, MCF07, 72 h incubation, CellTiter-Glo, mean ± SD
[15] = read-out: Cytotoxicity IC50, SUM149, 72 h incubation, CellTiter-Glo, mean ± SD

SMILES	TI (therapeutic index) MDA-MB231 [2]	TI (therapeutic index) MCF07 [3]	TI (therapeutic index) SUM149 [4]	IC50 [1, 12] [µM]	therapeutic index range [5]	IC50 [2, 13] [µM]	IC50 [3, 14] [µM]	IC50 [4, 15] [µM]	TI (therapeutic index) SUM149 [8]	IC50 [8] [µM]	IC50 at 72 h [9] [µM]	TI (therapeutic index) MCF07 [10]	IC50 [10] [µM]	TI (therapeutic index) MDA-MB231 [11]	IC50 [11] [µM]	also measured
CC(C)c1cc2c(cc1O)[C@@]1(C)CCC[C@@](C)(CN)[C@@H]1CC2 [Compound 2, 12-hydroxydehydroabietylamine]	15	7	17	–	–	–	–	–	–	–	–	–	–	–	–	IC50 [1]: 75 ± 6.2 µM; IC50 [2]: 5.1 ± 0.6 µM; IC50 [3]: 10 ± 1.5 µM; IC50 [4]: 4.4 ± 0.3 µM
CC(C)C1=CC2=C(C(=O)C1=O)[C@@]1(C)CCC[C@@](C)(CN3C(=O)c4ccccc4C3=O)[C@@H]1CC2 [Compound 10]	13	15	24	35.4 ± 5	6–43	2.8 ± 0.4	2.3 ± 1.1	1.5 ± 0.4	–	–	–	–	–	–	–	Colony-forming ability of SUM149 cells [6]: notable exceptions; Morphological changes (early apoptosis) [7]: Membrane blebbing; Effectiveness against SUM149 cell line (in words) [4]: notable effectiveness
COc1ccc2c(c1)C(=O)N(C[C@]1(C)CCC[C@]3(C)c4cc(O)c(C(C)C)cc4CC[C@@H]13)C2=O [Compound 9, 12-Hydroxy-N,N-(4-methoxyphthaloyl)dehydroabietylamine]	–	–	–	–	–	–	–	–	14	4.3 ± 0.2	58.9 ± 5.7	5	12 ± 1.2	7	8.2 ± 0.8	–
CC(C)c1cc2c(cc1O)[C@@]1(C)CCC[C@@](C)(CN3C(=O)c4ccccc4C3=O)[C@@H]1CC2 [Compound 5, 18-(phthalimid-2-yl)ferruginol]	9	6	17	74.8 ± 5.3	6–43	8.2 ± 0.5	13 ± 0.6	4.4 ± 0.2	–	–	–	–	–	–	–	–
COC(=O)[C@]1(C)CCC[C@]2(C)c3c(cc(C(C)C)c(O)c3O)CC[C@@H]12 [Compound 13]	6	≈1	≈1	–	–	–	–	–	–	–	–	–	–	–	–	IC50 [1]: 57.6 ± 3 µM; Bioactivity across the tested cell lines (in words) ([5]; conclusions, Table 1 values of this compound ref 13): minimal activity; IC50 [2]: 9.4 ± 0.4 µM; IC50 [3]: > 50 µM; IC50 [4]: > 50 µM
COC(=O)[C@]1(C)CCC[C@]2(C)C3=C(C=C(C(C)C)C(=O)C3=O)CC[C@@H]12 [Compound 11]	15	7	43	56.5 ± 6.1	6–43	3.9 ± 0.8	8.3 ± 0.9	1.3 ± 0.6	–	–	–	–	–	–	–	Colony-forming ability of SUM149 cells [6]: notable exceptions; Effectiveness against SUM149 cell line (in words) [4]: notable effectiveness
CC(C)c1cc2c(cc1O)[C@@]1(C)CCC[C@@](C)(CN3C(=O)c4cccc(F)c4C3=O)[C@@H]1CC2 [Compound 6]	–	–	–	–	–	–	–	–	13	4.8 ± 0.2	63.5 ± 6.3	12	5.4 ± 0.6	7	9.4 ± 0.9	Morphological changes (early apoptosis) [7]: Membrane blebbing
CC(C)c1cc2c(cc1O)[C@@]1(C)CCC[C@@](C)(CN3C(=O)c4ccc(F)cc4C3=O)[C@@H]1CC2 [Compound 7]	–	–	–	–	–	–	–	–	>12	4.3 ± 0.1	> 50	>7	7 ± 0.6	>7	7.6 ± 0.2	–
COc1cccc2c1C(=O)N(C[C@]1(C)CCC[C@]3(C)c4cc(O)c(C(C)C)cc4CC[C@@H]13)C2=O [Compound 8, 12-Hydroxy-N,N-(3-methoxyphthaloyl)dehydroabietylamine]	–	–	–	–	–	–	–	–	12	5.3 ± 0.1	61.2 ± 5.4	6	11 ± 1.4	≈1	54.6 ± 5	–
CC(C)c1cc2c(cc1O)[C@@]1(C)CCCC(C)(C)[C@@H]1CC2 [Compound 1, ferruginol]	>6	>3	–	> 50	–	8.3 ± 1.4	19 ± 1.5	> 50	–	–	–	–	–	–	–	Colony-forming ability of SUM149 cells [6]: notable exceptions; Morphological changes (early apoptosis) [7]: Membrane blebbing
CC(C)c1cc2c(c(O)c1O)[C@@]1(C)CCC[C@@](C)(CN3C(=O)c4ccccc4C3=O)[C@@H]1CC2 [Compound 12]	12	7	18	–	6–43	–	–	–	–	–	–	–	–	–	–	IC50 [1]: 32.5 ± 5 µM; IC50 [2]: 2.8 ± 0.2 µM; IC50 [3]: 4.6 ± 0.6 µM; IC50 [4]: 1.8 ± 0.2 µM
